This test has as its system 616215-338-R-J1-PDC complex spheroid viability. The test is described as follows: Anticancer human tumor 616215-338-R-J1-PDC patient-derived colon adenocarcinoma cell line growth inhibition [RAS]. Conditions: for viability, T/C: stronger effect = lower value. An outline of the steps: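 Multi-cell-type spheroids: tumor cells plus HUVEC endothelial cells and mesenchymal stem cells. RAS-pathway inhibitors were combined with targeted agents, each dosed in half-log steps down from clinical Cmax, or from 10 microM when Cmax was unknown.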

pIC50: −log10 of the molar value. “And” between values parts separate entries of the source, which are not always exact repeats. Equal values may be shown once.
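Also: spheroids exposed to agents for seven days before viability readout.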
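For viability, T/C in this document: 100% = DMSO vehicle control viability.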

As for `O=C(c1ccc(F)c(F)c1Nc1ccc(I)cc1F)N1CC(O)([C@@H]2CCCCN2)C1` + CCn1c(-c2cc(N3CCN(C)CC3)cnc2C(C)OC)c2c3cc(ccc31)-c1csc(n1)CC(NC(=O)C1CC1C)C(=O)N1CCCC(N1)C(=O)OCC(C)(C)C2, the negative-log IC50 (pIC50) – broadly, −log10 of the IC50, conventionally taken in molar units – (curve of first compound, second compound 0.000949 µM) was 7.38; the pIC50 (curve of first compound, second compound 0.003 µM) is 7.65; the negative logarithm of the IC50 (pIC50) (curve of first compound, second compound 0.00949 µM) is 8.18; the negative-log IC50 (pIC50) (curve of first compound, second compound 0.03 µM) is over 8.50; the pIC50 (curve of first compound, second compound 0.0949 µM) is over 8.50; the pIC50 (curve of first compound, second compound 0.3 µM) was over 8.50. Besides, the viability, T/C (commonly the ratio of treated to control) was 115% (second compound 0.000949 µM, first compound 0.00316 µM); 87.5% (second compound 0.000949 µM, first compound 0.01 µM); 58.6% (second compound 0.000949 µM, first compound 0.0316 µM); 27% (second compound 0.000949 µM, first compound 0.1 µM); 12.1% (second compound 0.000949 µM, first compound 0.316 µM); 3.52% (second compound 0.000949 µM, first compound 1 µM). The viability, T/C runs as follows: (second compound 0.003 µM, first compound 0.00316 µM) 101%; (second compound 0.003 µM, first compound 0.01 µM) 73.3%; (second compound 0.003 µM, first compound 0.0316 µM) 39%; (second compound 0.003 µM, first compound 0.1 µM) 20.6%; (second compound 0.003 µM, first compound 0.316 µM) 5.3%; (second compound 0.003 µM, first compound 1 µM) 2.66%. Moreover, the viability, T/C runs as follows: (second compound 0.00949 µM, first compound 0.00316 µM) 66.8%; (second compound 0.00949 µM, first compound 0.01 µM) 39.9%; (second compound 0.00949 µM, first compound 0.0316 µM) 24.2%; (second compound 0.00949 µM, first compound 0.1 µM) 15.7%; (second compound 0.00949 µM, first compound 0.316 µM) 2.25%; (second compound 0.00949 µM, first compound 1 µM) 2.11%. Besides, the viability, T/C was 32.5% (second compound 0.03 µM, first compound 0.00316 µM); 30.3% (second compound 0.03 µM, first compound 0.01 µM); 21.2% (second compound 0.03 µM, first compound 0.0316 µM); 3.47% (second compound 0.03 µM, first compound 0.1 µM); 1.98% (second compound 0.03 µM, first compound 0.316 µM); 1.79% (second compound 0.03 µM, first compound 1 µM). Besides, the viability, T/C runs as follows: (second compound 0.0949 µM, first compound 0.00316 µM) 30.1%; (second compound 0.0949 µM, first compound 0.01 µM) 19.2%; (second compound 0.0949 µM, first compound 0.0316 µM) 4.14%; (second compound 0.0949 µM, first compound 0.1 µM) 1.63%; (second compound 0.0949 µM, first compound 0.316 µM) 1.65%; (second compound 0.0949 µM, first compound 1 µM) 1.53%. Also, the viability, T/C was 25.9% (second compound 0.3 µM, first compound 0.00316 µM); 18.8% (second compound 0.3 µM, first compound 0.01 µM); 2.37% (second compound 0.3 µM, first compound 0.0316 µM); 1.55% (second compound 0.3 µM, first compound 0.1 µM); 1.12% (second compound 0.3 µM, first compound 0.316 µM); 1.16% (second compound 0.3 µM, first compound 1 µM).

Turning to `CCN1CCN(Cc2ccc(Nc3ncc(F)c(-c4cc(F)c5nc(C)n(C(C)C)c5c4)n3)nc2)CC1`, the viability, T/C by setting is: (compound 0.01 µM) 104% [middle of 4 runs]; (compound 0.0316 µM) 113% [middle of 4 runs]; (compound 0.1 µM) 117% (3×) and 120%; (compound 1 µM) 64.1% (2×) and 70.2% and 59.4%. The negative-log IC50 (pIC50) (curve of compound) was under 6.00.

For the origin of these results see PubChem BioAssay AID2060898 (Molecular Pharmacology Branch, DTP, NCI, 2025).
